From US9795602B2, “Polycyclic-carbamoylpyridone compounds and their pharmaceutical use” (Gilead Sciences, Inc., priority 2014, dated 2017)

Experiments:
[1] = tested on: HIV-IIIb; assay: Antiviral assay in MT4 cells; format: cell-based; details: Human immunodeficiency virus 1, IIIB, MT4, 120 h, MT4 cells, HIV-IIIb, 5 days; read-out: EC50
In short: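 MT4 cells infected with HIV-IIIb (0.004 m.o.i.) or mock-infected, then plated at 2000 cells per well with compound. After 5 days at 37 °C, cell viability read by CellTiter-Glo chemiluminescence.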

[2] = Cytotoxicity (CC50) in MT4 cells, mock-infected; format: cell-based; details: human, mock-infected
In short: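 Uninfected MT4 cells, 2000 per well, incubated with compound 5 days at 37 °C. Viability by CellTiter-Glo luminescence after 2–3 min lysis at room temperature.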

[3] = molecular target: PXR (NR1I2) (Homo sapiens (Human), UniProt O75469); assay: Human PXR activation assay (luciferase reporter, DPX2 cells); format: cell-based; details: human; 15 uM; DPX2 cells; % Emax relative to rifampicin, adjusted for DMSO background; read-out: PXR % inh at 15 uM (adjusted)
Method: Luciferase Reporter Gene Assay.
A stably transformed tumor cell line (DPX2) was plated on 96-well microtiter plates. […]. The number of viable cells was determined and the reporter gene activity was assessed. […]

[4] = Pharmacokinetics after intravenous infusion to male SD rats; format: in vivo; details: Sprague-Dawley, plasma, rat, IV infusion 0.5 mg/kg; for Vd: read-out: Vss
Method: Pharmacokinetic analysis was performed on compounds 25b and 39 following intravenous or oral administration to rats.
The test compounds were formulated in 5% Ethanol, 55% PEG 300, and 40% water at 0.1 mg/mL for IV infusion and for oral dosing.
Each dosing group consisted of 3 male, Sprague-Dawley rats. At dosing, the animals weighed an average of 0.25 kg. The animals were fasted overnight prior to dose administration and up to 4 hr after dosing.
For the IV infusion group, the test article was administered by intravenous infusion over 30 min. The rate of infusion was adjusted according to the body weight of each animal to deliver a dose of 0.5 mg/kg. For the oral dosing group, the test article was administered by oral gavage at 5 mL/kg for a dose of 0.5 mg/kg.
For pharmacokinetic analysis of intravenously administered compounds, serial venous blood samples (approximately 0.3 mL each) were taken from each animal at 0, 0.250, 0.483, 0.583, 0.750, 1.50, 3.00, 6.00, 8.00, 12.0, 24.0, 48 and 72 hours after dosing. The blood samples were collected into Vacutainer™ tubes containing EDTA-K2 as the anti-coagulant and were immediately placed on wet ice pending centrifugation for plasma. An LC/MS/MS method was used to measure the concentration of the test compound in plasma. An aliquot of 50 μL of each plasma sample was added to a clean 96 well plate, and 200 μL of cold acetonitrile/internal standard solution (ACN)/(ISTD) was added. After protein precipitation, an aliquot of 110 μL of the supernatant was transferred to a clean 96-well plate and diluted with 300 μL of water. An aliquot of 10 μL of the above solution was injected into a ABSciex API-4000 triple quadrupole LC/MS/MS system utilizing a HyPurity C18 HPLC column (30×2.1 mm, 3μ), from Thermo-Hypersil (Part #22103-032130). An Agilent 1200 series binary pump (P/N G1312A Bin Pump) was used for elution and separation, and an HTS Pal autosampler (LEAP Technologies, Carrboro, N.C.) was used for sample injection. A API-4000 triple quadrupole mass spectrometer was utilized in multiple reaction monitoring mode (Applied Biosystems, Foster City, Calif.). Liquid chromatography was performed using two mobile phases: mobile phase A contained 0.1% formic acid and 1% isopropylamine in aqueous solution, and mobile phase B contained […]. Non-compartmental pharmacokinetic analysis was performed on the plasma concentration-time data. The resulting data are shown in the first three columns of Table 2. In Table 2, Cl refers to clearance, which characterizes the rate at which drug is removed from plasma. The lower the clearance of a drug is, the longer the elimination half-life is in the body. Vss refers to the steady state volume of distribution and indicates how well a drug is distributed into the tissues. The larger the Vss is, the longer the elimination half-life is in the body. MRT refers to mean residence time, which is a measure of the average time molecules exist in the body.

[5] = Plasma protein binding (equilibrium dialysis); format: in vitro ADME; details: human, plasma (sodium EDTA) dialysed against buffer; 2 μM in plasma vs. buffer, 24 hours at 37° C.; read-out: % Free HP/Buffer
Method: Plasma protein binding was determined using a HTD96b equilibrium dialyzer with a plate base, stainless steel pressure plate and Teflon bock. 9 Teflon bars, labeled sequentially from A through I, were assembled with two stainless steel connecting rods. Membranes were placed between two Teflon bars, with the membrane placed approximately 2 mm below the top edge of the bar and the lower membrane edge overlapped the bottom of all wells. The membrane was soaked for about 20 minutes in water, about 20 minutes in ethanol (30/70 v/v) and rinsed with water three times to remove the ethanol. It was soaked in PBS for at least 30 minutes. Plasma in sodium EDTA (Bioreclamation or equivalent) was used. The Plasma (not pH-adjusted) was stored at −80° C. and thawed at room temperature before use. The stock solution of the compounds tested was at 200 μM in DMSO. The quench solution used was 50 nM of an internal standard in 100% ACN. To prepare a 2 μM solution of the compound tested in plasma, 5 μL of a 200 μM stock solution was added to 495 μL of blank plasma. 100 μL plasma was added with 2 μM of test compound into one side of the well. 100 μL of buffer (for plasma vs. buffer) was added into another side of the well. The 96-well plate was covered using an adhesive sealing film and incubated for 24 hours at 37° C. under slow rotation. This procedure was replicated for each compound. 50 μL of plasma sample was put into a 96 well plate, 50 μL of buffer was added. 50 μL of buffer was put into a 96 well plate. 50 μL of plasma was added. 300 μL of quench solution was added and the plate sealed and shaken for 15 minutes. The material was centrifuged for 30 minutes at 3000 RPM and ˜250 μL was transferred into a short plate. The samples were analyzed by LC/MS. The resulting data is shown in the last row of Table 3 as “% Free” which corresponds to the percentage of compound not protein bound.

Sequence of PXR (NR1I2) (O75469 whole entry): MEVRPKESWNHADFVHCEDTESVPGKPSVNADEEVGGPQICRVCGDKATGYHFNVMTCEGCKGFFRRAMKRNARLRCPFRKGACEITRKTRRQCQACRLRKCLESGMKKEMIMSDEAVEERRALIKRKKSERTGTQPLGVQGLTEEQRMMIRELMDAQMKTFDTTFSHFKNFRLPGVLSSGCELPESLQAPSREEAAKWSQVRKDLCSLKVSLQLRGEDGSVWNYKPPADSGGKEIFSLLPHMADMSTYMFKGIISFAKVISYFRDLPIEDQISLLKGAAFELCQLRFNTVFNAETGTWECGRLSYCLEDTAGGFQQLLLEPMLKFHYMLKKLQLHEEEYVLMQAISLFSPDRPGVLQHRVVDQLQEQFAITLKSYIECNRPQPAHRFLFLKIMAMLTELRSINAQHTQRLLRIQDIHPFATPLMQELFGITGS

| Structure (SMILES) | EC50 [1] [µM] | CC50 at 5 days [2] [µM] | inhibition at 24 h, 15 µM [3] [%] | MRT [4] [h] | clearance [4] [mL/h/kg] | Vd [4] [L/kg] | fraction unbound at 24 h, 2 µM [5] |
| --- | --- | --- | --- | --- | --- | --- | --- |
| CCN1C(=O)c2c(O)c(=O)c(C(=O)NCc3ccc(F)c(Cl)c3F)cn2[C@H]2CCO[C@H]21 [Compound 25b] | 0.00437 | 26.7 | 13 | 119 | 1.3 | 0.141 | < 0.001 |
| CCN1C(=O)c2c(O)c(=O)c(C(=O)NCc3ccc(F)c(Cl)c3F)cn2[C@H]2CCOC[C@H]21 [Compound 39] | 0.00258 | 12.8 | 5 | 105 | 2.3 | 0.212 | 0.0067 |
